Values joined by “and” are separate entries in the source; they are usually repeats but may differ in a detail not shown here. Identical values can stand only once. Numbers after ± are expanded uncertainties.
Details: 283.16 K, Liquid, Vibrating tube method

**Q.** Which results are given for CCCCCC(=O)OCC(COC(=O)CCCCC)(COC(=O)CCCCC)COC(=O)CCCCC [pentaerythritol tetrahexanoate]?
**A.** mass density (94 kPa): 1004.3 ± 1.2 kg/m3; mass density (94.1 kPa): 1004.2 ± 1.2 kg/m3 and 1004.1 ± 1.2 kg/m3; mass density (94.2 kPa): 1004.2 ± 1.2 kg/m3; mass density (94.3 kPa): 1004.2 ± 1.2 kg/m3; mass density (94.5 kPa): 1004.2 ± 1.2 kg/m3 and 1004.1 ± 1.2 kg/m3; mass density (94.7 kPa): 1004.1 ± 1.2 kg/m3; mass density (94.8 kPa): 1004.2 ± 1.2 kg/m3; mass density (95 kPa): 1004.1 ± 1.2 kg/m3 and 1004.2 ± 1.2 kg/m3; mass density (95.2 kPa): 1004.1 ± 1.2 kg/m3 and 1004.3 ± 1.2 kg/m3; mass density (95.4 kPa): 1004.2 ± 1.2 kg/m3 and 1004.1 ± 1.2 kg/m3; mass density (95.5 kPa): 1004.2 ± 1.2 kg/m3 and 1004.1 ± 1.2 kg/m3; mass density (95.9 kPa): 1004.2 ± 1.2 kg/m3; mass density (96.1 kPa): 1004.2 ± 1.2 kg/m3; mass density (96.9 kPa): 1004.1 ± 1.2 kg/m3; mass density (97.1 kPa): 1004.3 ± 1.2 kg/m3; mass density (97.4 kPa): 1004.3 ± 1.2 kg/m3; mass density (97.8 kPa): 1004.1 ± 1.2 kg/m3; mass density (98.1 kPa): 1004.2 ± 1.2 kg/m3; mass density (98.3 kPa): 1004.4 ± 1.2 kg/m3; mass density (98.5 kPa): 1004.1 ± 1.2 kg/m3; mass density (98.6 kPa): 1004.2 ± 1.2 kg/m3; mass density (99 kPa): 1004.2 ± 1.2 kg/m3; mass density (99.3 kPa): 1004.2 ± 1.2 kg/m3; mass density (99.5 kPa): 1004.2 ± 1.2 kg/m3; mass density (99.7 kPa): 1004.2 ± 1.2 kg/m3 and 1004.1 ± 1.2 kg/m3; mass density (100 kPa): 1004.1 ± 1.2 kg/m3 and 1004.2 ± 1.2 kg/m3; mass density (100.2 kPa): 1004.2 ± 1.2 kg/m3 and 1004.3 ± 1.2 kg/m3; mass density (100.4 kPa): 1004.2 ± 1.2 kg/m3; mass density (100.5 kPa): 1004.2 ± 1.2 kg/m3; mass density (100.7 kPa): 1004.1 ± 1.2 kg/m3; mass density (101 kPa): 1004.2 ± 1.2 kg/m3 and 1004.1 ± 1.2 kg/m3; mass density (101.1 kPa): 1004.2 ± 1.2 kg/m3; mass density (101.2 kPa): 1004.3 ± 1.2 kg/m3 and 1004.1 ± 1.2 kg/m3; mass density (101.4 kPa): 1004.3 ± 1.2 kg/m3 and 1004.1 ± 1.2 kg/m3; mass density (101.7 kPa): 1004.2 ± 1.2 kg/m3; mass density (102.2 kPa): 1004.1 ± 1.2 kg/m3; mass density (102.4 kPa): 1004.2 ± 1.2 kg/m3; mass density (102.6 kPa): 1004.2 ± 1.2 kg/m3 and 1004.1 ± 1.2 kg/m3; mass density (102.8 kPa): 1004.3 ± 1.2 kg/m3; mass density (103.1 kPa): 1004.1 ± 1.2 kg/m3 and 1004.2 ± 1.2 kg/m3; mass density (103.3 kPa): 1004.2 ± 1.2 kg/m3; mass density (103.4 kPa): 1004.1 ± 1.2 kg/m3; mass density (103.6 kPa): 1004.1 ± 1.2 kg/m3; mass density (104 kPa): 1004.1 ± 1.2 kg/m3 and 1004.3 ± 1.2 kg/m3; mass density (104.1 kPa): 1004.1 ± 1.2 kg/m3; mass density (104.3 kPa): 1004.2 ± 1.2 kg/m3; mass density (104.5 kPa): 1004.1 ± 1.2 kg/m3 and 1004.2 ± 1.2 kg/m3; mass density (105 kPa): 1004.2 ± 1.2 kg/m3; mass density (105.2 kPa): 1004.1 ± 1.2 kg/m3; mass density (105.3 kPa): 1004.2 ± 1.2 kg/m3; mass density (105.5 kPa): 1004.1 ± 1.2 kg/m3; mass density (105.8 kPa): 1004.2 ± 1.2 kg/m3 and 1004.3 ± 1.2 kg/m3; mass density (106 kPa): 1004.1 ± 1.2 kg/m3; mass density (106.2 kPa): 1004.2 ± 1.2 kg/m3; mass density (106.3 kPa): 1004.2 ± 1.2 kg/m3; mass density (106.4 kPa): 1004.1 ± 1.2 kg/m3; mass density (106.5 kPa): 1004.2 ± 1.2 kg/m3; mass density (106.7 kPa): 1004.3 ± 1.2 kg/m3; mass density (106.9 kPa): 1004.2 ± 1.2 kg/m3; mass density (107 kPa): 1004.2 ± 1.2 kg/m3 and 1004.1 ± 1.2 kg/m3; mass density (107.2 kPa): 1004.1 ± 1.2 kg/m3; mass density (107.9 kPa): 1004.2 ± 1.2 kg/m3 and 1004.3 ± 1.2 kg/m3; mass density (108.2 kPa): 1004.2 ± 1.2 kg/m3; mass density (108.6 kPa): 1004.2 ± 1.2 kg/m3; mass density (108.7 kPa): 1004.1 ± 1.2 kg/m3 and 1004.2 ± 1.2 kg/m3; mass density (108.9 kPa): 1004.2 ± 1.2 kg/m3; mass density (109.4 kPa): 1004.2 ± 1.2 kg/m3; mass density (109.6 kPa): 1004.2 ± 1.2 kg/m3; mass density (109.8 kPa): 1004.1 ± 1.2 kg/m3; mass density (109.9 kPa): 1004.2 ± 1.2 kg/m3; mass density (110.1 kPa): 1004.2 ± 1.2 kg/m3; mass density (110.3 kPa): 1004.2 ± 1.2 kg/m3; mass density (110.5 kPa): 1004.1 ± 1.2 kg/m3; mass density (110.6 kPa): 1004.4 ± 1.2 kg/m3 and 1004.2 ± 1.2 kg/m3; mass density (110.8 kPa): 1004.2 ± 1.2 kg/m3; mass density (111 kPa): 1004.1 ± 1.2 kg/m3; mass density (111.1 kPa): 1004.2 ± 1.2 kg/m3; mass density (111.3 kPa): 1004.2 ± 1.2 kg/m3; mass density (119.9 kPa): 1004.1 ± 1.2 kg/m3; mass density (120.5 kPa): 1004.2 ± 1.2 kg/m3; mass density (120.6 kPa): 1004.1 ± 1.2 kg/m3; mass density (120.8 kPa): 1004.2 ± 1.2 kg/m3; mass density (121 kPa): 1004.2 ± 1.2 kg/m3 and 1004.1 ± 1.2 kg/m3; mass density (121.1 kPa): 1004.3 ± 1.2 kg/m3; mass density (126.7 kPa): 1004.3 ± 1.2 kg/m3; mass density (126.9 kPa): 1004.4 ± 1.2 kg/m3 and 1004.2 ± 1.2 kg/m3; mass density (127 kPa): 1004.2 ± 1.2 kg/m3; mass density (127.4 kPa): 1004.3 ± 1.2 kg/m3; mass density (127.5 kPa): 1004.1 ± 1.2 kg/m3; mass density (127.7 kPa): 1004.1 ± 1.2 kg/m3; mass density (128.4 kPa): 1004.2 ± 1.2 kg/m3; mass density (128.6 kPa): 1004.3 ± 1.2 kg/m3; mass density (128.8 kPa): 1004.2 ± 1.2 kg/m3; mass density (129.1 kPa): 1004.2 ± 1.2 kg/m3; mass density (129.8 kPa): 1004.2 ± 1.2 kg/m3 and 1004.1 ± 1.2 kg/m3 and 1004.3 ± 1.2 kg/m3; mass density (130.3 kPa): 1004.2 ± 1.2 kg/m3; mass density (130.8 kPa): 1004.2 ± 1.2 kg/m3 and 1004.1 ± 1.2 kg/m3; mass density (131.2 kPa): 1004.3 ± 1.2 kg/m3; mass density (131.5 kPa): 1004.2 ± 1.2 kg/m3; mass density (131.9 kPa): 1004.2 ± 1.2 kg/m3; mass density (132 kPa): 1004.3 ± 1.2 kg/m3; mass density (132.2 kPa): 1004.3 ± 1.2 kg/m3; mass density (132.4 kPa): 1004.1 ± 1.2 kg/m3; mass density (132.6 kPa): 1004.2 ± 1.2 kg/m3; mass density (132.7 kPa): 1004 ± 1.2 kg/m3; mass density (133.1 kPa): 1004.2 ± 1.2 kg/m3; mass density (133.4 kPa): 1004.2 ± 1.2 kg/m3; mass density (133.8 kPa): 1004.2 ± 1.2 kg/m3; mass density (145.2 kPa): 1004.2 ± 1.2 kg/m3; mass density (145.6 kPa): 1004.2 ± 1.2 kg/m3; mass density (146.1 kPa): 1004.2 ± 1.2 kg/m3; mass density (147 kPa): 1004.2 ± 1.2 kg/m3; mass density (148.7 kPa): 1004.2 ± 1.2 kg/m3; mass density (149.2 kPa): 1004.2 ± 1.2 kg/m3; mass density (149.4 kPa): 1004.2 ± 1.2 kg/m3; mass density (149.8 kPa): 1004.4 ± 1.2 kg/m3; mass density (150.1 kPa): 1004.3 ± 1.2 kg/m3 and 1004.2 ± 1.2 kg/m3; mass density (158.8 kPa): 1004.2 ± 1.2 kg/m3; mass density (159 kPa): 1004.1 ± 1.2 kg/m3; mass density (159.1 kPa): 1004.2 ± 1.2 kg/m3; mass density (159.7 kPa): 1004.3 ± 1.2 kg/m3; mass density (159.8 kPa): 1004.2 ± 1.2 kg/m3; mass density (160.2 kPa): 1004.3 ± 1.2 kg/m3; mass density (168.7 kPa): 1004.2 ± 1.2 kg/m3; mass density (168.9 kPa): 1004.2 ± 1.2 kg/m3; mass density (169.4 kPa): 1004.2 ± 1.2 kg/m3; mass density (170.2 kPa): 1004.2 ± 1.2 kg/m3; mass density (170.6 kPa): 1004.2 ± 1.2 kg/m3; mass density (171.1 kPa): 1004 ± 1.2 kg/m3; mass density (171.5 kPa): 1004.2 ± 1.2 kg/m3; mass density (171.8 kPa): 1004.1 ± 1.2 kg/m3; mass density (172.3 kPa): 1004.3 ± 1.2 kg/m3; mass density (172.5 kPa): 1004.3 ± 1.2 kg/m3; mass density (175.8 kPa): 1004.2 ± 1.2 kg/m3; mass density (176.7 kPa): 1004.2 ± 1.2 kg/m3; mass density (177 kPa): 1004.3 ± 1.2 kg/m3; mass density (177.7 kPa): 1004.2 ± 1.2 kg/m3; mass density (216.6 kPa): 1004.2 ± 1.2 kg/m3; mass density (218.2 kPa): 1004.4 ± 1.2 kg/m3; mass density (218.5 kPa): 1004.3 ± 1.2 kg/m3; mass density (224.6 kPa): 1004.3 ± 1.2 kg/m3; mass density (224.9 kPa): 1004.3 ± 1.2 kg/m3; mass density (225.8 kPa): 1004.2 ± 1.2 kg/m3; mass density (226.1 kPa): 1004.3 ± 1.2 kg/m3; mass density (226.8 kPa): 1004.3 ± 1.2 kg/m3
